Experimental data from the kinase profiling compilation of Christmann-Franck et al. (2016).

Assays:
Assay in all cases: radiometric filter-binding kinase assay, Kinase HotSpot
Details in all cases: compound 0.5 µM; ATP 10 µM
AKT1 (human) = AKT1 (human) (UniProt P31749)
AKT3 (human) = AKT3 (human) (UniProt Q9Y243)
BRAF (human) = BRAF (human) (UniProt P15056)
BRSK2 (human) = BRSK2 (human) (UniProt Q8IWQ3)
CAMK2D (human) = CAMK2D (human) (UniProt Q13557)
CDC42BPA (human) = CDC42BPA (human) (UniProt Q5VT25)
CDK1 CCNB1 (human) = CDK1 CCNB1 (human) (UniProt P06493+P14635)
Chain of CDK1 CCNB1 (human) (P06493 whole entry, looked up): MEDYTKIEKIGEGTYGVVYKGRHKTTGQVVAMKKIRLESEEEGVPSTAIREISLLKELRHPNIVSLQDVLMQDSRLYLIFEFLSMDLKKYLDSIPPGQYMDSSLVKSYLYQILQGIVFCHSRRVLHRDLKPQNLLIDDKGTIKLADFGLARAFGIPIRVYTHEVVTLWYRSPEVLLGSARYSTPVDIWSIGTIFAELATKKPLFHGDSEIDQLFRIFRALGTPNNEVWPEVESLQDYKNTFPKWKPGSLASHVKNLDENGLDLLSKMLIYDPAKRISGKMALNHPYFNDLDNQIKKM
Chain of CDK1 CCNB1 (human) (P14635 whole entry, looked up): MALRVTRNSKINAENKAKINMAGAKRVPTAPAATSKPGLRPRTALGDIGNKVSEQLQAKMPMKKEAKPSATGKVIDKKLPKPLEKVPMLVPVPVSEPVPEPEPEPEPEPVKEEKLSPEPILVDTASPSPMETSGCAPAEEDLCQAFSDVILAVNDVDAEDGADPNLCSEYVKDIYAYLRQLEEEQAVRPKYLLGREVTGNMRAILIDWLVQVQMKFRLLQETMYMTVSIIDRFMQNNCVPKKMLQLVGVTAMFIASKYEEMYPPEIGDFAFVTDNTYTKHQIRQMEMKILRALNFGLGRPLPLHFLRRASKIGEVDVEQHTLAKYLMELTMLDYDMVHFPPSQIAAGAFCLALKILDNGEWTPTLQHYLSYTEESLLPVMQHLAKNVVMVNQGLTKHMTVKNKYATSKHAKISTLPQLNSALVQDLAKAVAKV

CDK2 CCNA2 (human) = CDK2 CCNA2 (human) (UniProt P24941+P20248)
Chain of CDK2 CCNA2 (human) (P20248 whole entry, looked up, other chains not shown): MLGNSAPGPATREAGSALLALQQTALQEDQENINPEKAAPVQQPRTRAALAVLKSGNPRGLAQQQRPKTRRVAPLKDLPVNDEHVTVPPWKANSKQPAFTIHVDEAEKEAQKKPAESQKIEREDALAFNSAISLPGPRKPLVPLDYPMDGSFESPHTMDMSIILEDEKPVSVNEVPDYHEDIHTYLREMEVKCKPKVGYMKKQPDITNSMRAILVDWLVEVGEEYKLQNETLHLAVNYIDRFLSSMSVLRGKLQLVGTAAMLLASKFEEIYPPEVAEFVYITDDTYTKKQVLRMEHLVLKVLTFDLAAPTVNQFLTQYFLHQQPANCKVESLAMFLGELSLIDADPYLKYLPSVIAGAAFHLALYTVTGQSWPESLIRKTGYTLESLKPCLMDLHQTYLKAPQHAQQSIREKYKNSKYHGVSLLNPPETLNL

CLK4 (human) = CLK4 (human) (UniProt Q9HAZ1)
CSNK1D (human) = CSNK1D (human) (UniProt P48730)
DAPK2 (human) = DAPK2 (human) (UniProt Q9UIK4)
EPHA3 (human) = EPHA3 (human) (UniProt P29320)
EPHA4 (human) = EPHA4 (human) (UniProt P54764)
EPHA6 (human) = EPHA6 (human) (UniProt Q9UF33)
FGFR1 (human) = FGFR1 (human) (UniProt P11362)
[1] = tested on: FLT4 (human), P35916 [Q890H]
Chain of FLT4 (human), P35916 [Q890H] (P35916 whole entry, looked up, stated change not applied): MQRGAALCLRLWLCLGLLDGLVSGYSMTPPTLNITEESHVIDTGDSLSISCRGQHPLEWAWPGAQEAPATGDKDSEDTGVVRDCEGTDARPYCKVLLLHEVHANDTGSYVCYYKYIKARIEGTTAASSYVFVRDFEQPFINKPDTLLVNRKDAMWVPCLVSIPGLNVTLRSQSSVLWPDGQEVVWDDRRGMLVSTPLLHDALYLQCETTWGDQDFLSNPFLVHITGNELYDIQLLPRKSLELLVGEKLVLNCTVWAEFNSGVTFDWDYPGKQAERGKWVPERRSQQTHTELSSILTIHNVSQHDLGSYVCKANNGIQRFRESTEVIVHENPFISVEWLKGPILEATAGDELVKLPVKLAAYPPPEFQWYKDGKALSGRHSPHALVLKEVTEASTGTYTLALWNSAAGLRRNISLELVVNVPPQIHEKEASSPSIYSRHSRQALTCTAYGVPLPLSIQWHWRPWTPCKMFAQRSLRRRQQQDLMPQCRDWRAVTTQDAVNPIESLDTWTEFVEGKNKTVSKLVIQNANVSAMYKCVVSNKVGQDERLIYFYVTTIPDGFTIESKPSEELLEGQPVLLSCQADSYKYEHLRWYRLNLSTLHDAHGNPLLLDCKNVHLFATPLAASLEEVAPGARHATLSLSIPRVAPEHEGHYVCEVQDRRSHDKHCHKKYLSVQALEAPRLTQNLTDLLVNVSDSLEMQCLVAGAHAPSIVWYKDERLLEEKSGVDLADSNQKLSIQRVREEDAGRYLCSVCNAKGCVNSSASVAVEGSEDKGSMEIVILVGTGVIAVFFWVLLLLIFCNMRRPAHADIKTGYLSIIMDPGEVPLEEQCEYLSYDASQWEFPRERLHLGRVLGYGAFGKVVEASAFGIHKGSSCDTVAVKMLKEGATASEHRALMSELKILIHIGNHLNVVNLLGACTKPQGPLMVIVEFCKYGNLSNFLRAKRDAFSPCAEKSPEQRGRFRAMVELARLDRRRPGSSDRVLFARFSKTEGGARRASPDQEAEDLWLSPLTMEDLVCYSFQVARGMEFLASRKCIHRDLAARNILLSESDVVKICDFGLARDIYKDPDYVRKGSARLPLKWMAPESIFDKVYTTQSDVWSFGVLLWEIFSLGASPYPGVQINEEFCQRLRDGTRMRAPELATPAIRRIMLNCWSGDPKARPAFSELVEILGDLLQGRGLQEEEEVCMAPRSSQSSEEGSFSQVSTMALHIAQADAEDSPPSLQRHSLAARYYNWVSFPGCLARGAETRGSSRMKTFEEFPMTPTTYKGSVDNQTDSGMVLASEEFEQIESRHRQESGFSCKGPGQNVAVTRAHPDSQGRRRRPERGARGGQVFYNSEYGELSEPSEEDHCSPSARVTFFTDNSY

GSG2 (human) = GSG2 (human) (UniProt Q8TF76)
HIPK1 (human) = HIPK1 (human) (UniProt Q86Z02)
IGF1R (human) = IGF1R (human) (UniProt P08069)
INSR (human) = INSR (human) (UniProt P06213)
ITK (human) = ITK (human) (UniProt Q08881)
[2] = target: JAK1 JH1 catalytic (human) (UniProt P23458)
MAP2K1 (human) = MAP2K1 (human) (UniProt Q02750)
MAP3K10 (human) = MAP3K10 (human) (UniProt Q02779)
Chain of MAP3K10 (human) (Q02779 whole entry, looked up): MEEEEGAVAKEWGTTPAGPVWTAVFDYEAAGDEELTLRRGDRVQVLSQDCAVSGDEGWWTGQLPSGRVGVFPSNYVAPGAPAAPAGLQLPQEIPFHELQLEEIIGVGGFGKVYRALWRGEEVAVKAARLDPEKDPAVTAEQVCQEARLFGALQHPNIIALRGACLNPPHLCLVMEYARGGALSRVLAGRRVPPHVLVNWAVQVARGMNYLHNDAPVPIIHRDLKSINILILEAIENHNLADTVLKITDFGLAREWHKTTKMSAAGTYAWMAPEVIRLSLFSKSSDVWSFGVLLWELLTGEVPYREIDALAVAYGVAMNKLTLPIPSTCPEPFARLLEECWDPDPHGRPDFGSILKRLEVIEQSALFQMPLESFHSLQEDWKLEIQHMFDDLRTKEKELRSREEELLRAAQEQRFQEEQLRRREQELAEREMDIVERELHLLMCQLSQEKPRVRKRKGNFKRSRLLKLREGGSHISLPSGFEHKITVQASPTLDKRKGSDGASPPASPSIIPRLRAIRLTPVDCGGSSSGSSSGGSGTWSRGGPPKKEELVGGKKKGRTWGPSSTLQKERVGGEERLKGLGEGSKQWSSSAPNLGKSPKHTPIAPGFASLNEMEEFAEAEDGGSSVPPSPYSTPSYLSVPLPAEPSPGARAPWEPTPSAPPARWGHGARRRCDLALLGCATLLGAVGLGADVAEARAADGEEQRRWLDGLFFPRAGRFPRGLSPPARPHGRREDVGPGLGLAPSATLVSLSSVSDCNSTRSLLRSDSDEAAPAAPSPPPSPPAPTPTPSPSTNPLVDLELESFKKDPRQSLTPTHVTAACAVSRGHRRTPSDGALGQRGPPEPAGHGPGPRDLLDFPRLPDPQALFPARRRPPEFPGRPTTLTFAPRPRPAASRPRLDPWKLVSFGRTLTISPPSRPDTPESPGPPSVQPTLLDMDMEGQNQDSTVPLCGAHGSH

MAP3K11 (human) = MAP3K11 (human) (UniProt Q16584)
MAPK11 (human) = MAPK11 (human) (UniProt Q15759)
MAPK8 (human) = MAPK8 (human) (UniProt P45983)
MAPKAPK2 (human) = MAPKAPK2 (human) (UniProt P49137)
MAPKAPK5 (human) = MAPKAPK5 (human) (UniProt Q8IW41)
Chain of MAPKAPK5 (human) (Q8IW41 whole entry, looked up): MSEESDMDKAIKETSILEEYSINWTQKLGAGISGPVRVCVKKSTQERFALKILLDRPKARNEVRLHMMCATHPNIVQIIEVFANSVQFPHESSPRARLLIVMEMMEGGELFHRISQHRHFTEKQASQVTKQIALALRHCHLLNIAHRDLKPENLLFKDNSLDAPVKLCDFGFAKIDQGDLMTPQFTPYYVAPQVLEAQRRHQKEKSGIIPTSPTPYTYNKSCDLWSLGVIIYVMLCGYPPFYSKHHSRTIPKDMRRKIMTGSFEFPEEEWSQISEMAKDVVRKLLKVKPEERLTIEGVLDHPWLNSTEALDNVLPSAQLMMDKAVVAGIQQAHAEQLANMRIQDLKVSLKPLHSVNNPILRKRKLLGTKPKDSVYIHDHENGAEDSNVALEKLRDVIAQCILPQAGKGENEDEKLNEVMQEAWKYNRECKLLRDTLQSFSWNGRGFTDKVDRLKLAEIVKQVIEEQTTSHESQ

MARK1 (human) = MARK1 (human) (UniProt Q9P0L2)
MINK1 (human) = MINK1 (human) (UniProt Q8N4C8)
NEK9 (human) = NEK9 (human) (UniProt Q8TD19)
Chain of NEK9 (human) (Q8TD19 whole entry, looked up): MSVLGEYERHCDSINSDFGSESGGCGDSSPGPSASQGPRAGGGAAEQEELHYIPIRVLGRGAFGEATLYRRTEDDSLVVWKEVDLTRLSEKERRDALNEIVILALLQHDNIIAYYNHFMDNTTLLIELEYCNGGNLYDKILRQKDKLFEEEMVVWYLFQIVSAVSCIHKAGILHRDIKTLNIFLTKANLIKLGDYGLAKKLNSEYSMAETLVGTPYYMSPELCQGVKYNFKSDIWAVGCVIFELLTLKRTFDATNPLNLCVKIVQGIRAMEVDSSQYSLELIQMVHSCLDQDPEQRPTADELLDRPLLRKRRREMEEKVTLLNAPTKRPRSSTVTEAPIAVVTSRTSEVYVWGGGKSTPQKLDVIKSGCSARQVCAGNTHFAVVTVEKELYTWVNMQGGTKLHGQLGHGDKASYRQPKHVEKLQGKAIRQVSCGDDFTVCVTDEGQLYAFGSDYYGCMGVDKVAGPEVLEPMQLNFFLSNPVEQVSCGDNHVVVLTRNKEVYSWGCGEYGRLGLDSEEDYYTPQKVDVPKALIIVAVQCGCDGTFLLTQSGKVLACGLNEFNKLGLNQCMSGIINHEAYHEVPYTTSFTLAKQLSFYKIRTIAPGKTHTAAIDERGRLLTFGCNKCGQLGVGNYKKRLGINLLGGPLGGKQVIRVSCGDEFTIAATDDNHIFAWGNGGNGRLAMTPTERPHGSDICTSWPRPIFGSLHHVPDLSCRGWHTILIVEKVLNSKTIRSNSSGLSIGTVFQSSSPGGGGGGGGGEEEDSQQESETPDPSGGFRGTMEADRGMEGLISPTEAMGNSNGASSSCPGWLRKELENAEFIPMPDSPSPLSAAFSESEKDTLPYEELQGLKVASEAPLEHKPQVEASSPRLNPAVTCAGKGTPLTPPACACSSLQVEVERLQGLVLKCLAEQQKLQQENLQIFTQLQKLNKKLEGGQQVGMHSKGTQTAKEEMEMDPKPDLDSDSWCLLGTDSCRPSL

PAK1 (human) = PAK1 (human) (UniProt Q13153)
PDPK1 (human) = PDPK1 (human) (UniProt O15530)
PHKG1 (human) = PHKG1 (human) (UniProt Q16816)
PKN2 (human) = PKN2 (human) (UniProt Q16513)
RPS6KA5 KD2 (human) = RPS6KA5 KD2 (human) (UniProt O75582)
SRC (human) = SRC (human) (UniProt P12931)
STK38 (human) = STK38 (human) (UniProt Q15208)
TLK2 (human) = TLK2 (human) (UniProt Q86UE8)
TXK (human) = TXK (human) (UniProt P42681)
ULK3 (human) = ULK3 (human) (UniProt Q6PHR2)

Cc1cccc(-c2nc(C(C)(C)C)[nH]c2-c2ccc3c(c2)OCO3)n1
residual activity (AKT1 (human)): 94.6% | residual activity (AKT3 (human)): 94.7% | residual activity (BRAF (human)): 111% | residual activity (BRSK2 (human)): 99.3% | residual activity (CAMK2D (human)): 100% | residual activity (CDC42BPA (human)): 89.6% | residual activity (CDK1 CCNB1 (human)): 100% | residual activity (CDK2 CCNA2 (human)): 117% | residual activity (CLK4 (human)): 95.8% | residual activity (CSNK1D (human)): 63.4% | residual activity (DAPK2 (human)): 102% | residual activity (EPHA3 (human)): 101% | residual activity (EPHA4 (human)): 97.3% | residual activity (EPHA6 (human)): 92.7% | residual activity (FGFR1 (human)): 90.8% | residual activity [1]: 99.8% | residual activity (GSG2 (human)): 78.7% | residual activity (HIPK1 (human)): 101% | residual activity (IGF1R (human)): 96.2% | residual activity (INSR (human)): 87.6% | residual activity (ITK (human)): 95.8% | residual activity [2]: 96.1% | residual activity (MAP2K1 (human)): 93.3% | residual activity (MAP3K10 (human)): 99.3% | residual activity (MAP3K11 (human)): 96.2% | residual activity (MAPK11 (human)): 93% | residual activity (MAPK8 (human)): 95.7% | residual activity (MAPKAPK2 (human)): 103% | residual activity (MAPKAPK5 (human)): 96.1% | residual activity (MARK1 (human)): 85.1% | residual activity (MINK1 (human)): 98.4% | residual activity (NEK9 (human)): 95.6% | residual activity (PAK1 (human)): 96.3% | residual activity (PDPK1 (human)): 89.8% | residual activity (PHKG1 (human)): 87.6% | residual activity (PKN2 (human)): 93.5% | residual activity (RPS6KA5 KD2 (human)): 97.5% | residual activity (SRC (human)): 96% | residual activity (STK38 (human)): 91.7% | residual activity (TLK2 (human)): 103% | residual activity (TXK (human)): 100% | residual activity (ULK3 (human)): 80.4%

N#Cc1c[nH]c2c[nH]/c(=N\Cc3cccnc3)cc2/c1=N\c1ccc(F)c(Cl)c1
residual activity (AKT1 (human)): 98.6% | residual activity (AKT3 (human)): 95.1% | residual activity (BRAF (human)): 106% | residual activity (BRSK2 (human)): 100% | residual activity (CAMK2D (human)): 103% | residual activity (CDC42BPA (human)): 80% | residual activity (CDK1 CCNB1 (human)): 84.6% | residual activity (CDK2 CCNA2 (human)): 75.1% | residual activity (CLK4 (human)): 63.3% | residual activity (CSNK1D (human)): 88.4% | residual activity (DAPK2 (human)): 108% | residual activity (EPHA3 (human)): 122% | residual activity (EPHA4 (human)): 92.8% | residual activity (EPHA6 (human)): 76.2% | residual activity (FGFR1 (human)): 83.4% | residual activity [1]: 96.2% | residual activity (GSG2 (human)): 82.5% | residual activity (HIPK1 (human)): 98.6% | residual activity (IGF1R (human)): 93.8% | residual activity (INSR (human)): 85.1% | residual activity (ITK (human)): 99.1% | residual activity [2]: 93.6% | residual activity (MAP2K1 (human)): 86.2% | residual activity (MAP3K10 (human)): 101% | residual activity (MAP3K11 (human)): 89% | residual activity (MAPK11 (human)): 102% | residual activity (MAPK8 (human)): 110% | residual activity (MAPKAPK2 (human)): 100% | residual activity (MAPKAPK5 (human)): 99.6% | residual activity (MARK1 (human)): 91.6% | residual activity (MINK1 (human)): 77.5% | residual activity (NEK9 (human)): 96.3% | residual activity (PAK1 (human)): 95.7% | residual activity (PDPK1 (human)): 85.3% | residual activity (PHKG1 (human)): 92% | residual activity (PKN2 (human)): 85.9% | residual activity (RPS6KA5 KD2 (human)): 102% | residual activity (SRC (human)): 92.6% | residual activity (STK38 (human)): 93.9% | residual activity (TLK2 (human)): 106% | residual activity (TXK (human)): 88.1% | residual activity (ULK3 (human)): 72%

O=C1Nc2ccc(Br)cc2/C1=C\c1cc2c([nH]1)CCCC2
residual activity (AKT1 (human)): 99.8% | residual activity (AKT3 (human)): 96.6% | residual activity (BRAF (human)): 92.5% | residual activity (BRSK2 (human)): 93.8% | residual activity (CAMK2D (human)): 84.2% | residual activity (CDC42BPA (human)): 81.9% | residual activity (CDK1 CCNB1 (human)): 98.5% | residual activity (CDK2 CCNA2 (human)): 90.8% | residual activity (CLK4 (human)): 84.5% | residual activity (CSNK1D (human)): 72.4% | residual activity (DAPK2 (human)): 102% | residual activity (EPHA3 (human)): 94.6% | residual activity (EPHA4 (human)): 94.8% | residual activity (EPHA6 (human)): 89.2% | residual activity (FGFR1 (human)): 76.7% | residual activity [1]: 56.1% | residual activity (GSG2 (human)): 88% | residual activity (HIPK1 (human)): 97.2% | residual activity (IGF1R (human)): 74.3% | residual activity (INSR (human)): 85.8% | residual activity (ITK (human)): 87.5% | residual activity [2]: 99.3% | residual activity (MAP2K1 (human)): 84.8% | residual activity (MAP3K10 (human)): 99.8% | residual activity (MAP3K11 (human)): 16.8% | residual activity (MAPK11 (human)): 96.8% | residual activity (MAPK8 (human)): 107% | residual activity (MAPKAPK2 (human)): 97.5% | residual activity (MAPKAPK5 (human)): 90.6% | residual activity (MARK1 (human)): 69% | residual activity (MINK1 (human)): 26.4% | residual activity (NEK9 (human)): 85.6% | residual activity (PAK1 (human)): 95.7% | residual activity (PDPK1 (human)): 95.3% | residual activity (PHKG1 (human)): 60.2% | residual activity (PKN2 (human)): 91.3% | residual activity (RPS6KA5 KD2 (human)): 90.3% | residual activity (SRC (human)): 88.8% | residual activity (STK38 (human)): 80.1% | residual activity (TLK2 (human)): 101% | residual activity (TXK (human)): 97.3% | residual activity (ULK3 (human)): 55.5%

CO[C@@H]1[C@H](N(C)C(=O)c2ccccc2)C[C@H]2O[C@]1(C)n1c3ccccc3c3c4c(c5c6ccccc6n2c5c31)C(=O)NC4
residual activity (AKT1 (human)): 81.3% | residual activity (AKT3 (human)): 55.1% | residual activity (BRAF (human)): 106% | residual activity (BRSK2 (human)): 16.4% | residual activity (CAMK2D (human)): 17.3% | residual activity (CDC42BPA (human)): 96% | residual activity (CDK2 CCNA2 (human)): 66.6% | residual activity (CLK4 (human)): 22.6% | residual activity (CSNK1D (human)): 101% | residual activity (DAPK2 (human)): 105% | residual activity (EPHA4 (human)): 96.9% | residual activity (EPHA6 (human)): 79.5% | residual activity (FGFR1 (human)): 36.1% | residual activity [1]: 10.9% | residual activity (GSG2 (human)): 70.2% | residual activity (HIPK1 (human)): 101% | residual activity (INSR (human)): 106% | residual activity (ITK (human)): 70.6% | residual activity [2]: 16.3% | residual activity (MAP2K1 (human)): 109% | residual activity (MAP3K10 (human)): 3.15% | residual activity (MAP3K11 (human)): 1.38% | residual activity (MAPK11 (human)): 97.6% | residual activity (MAPK8 (human)): 88.3% | residual activity (MAPKAPK2 (human)): 97.8% | residual activity (MAPKAPK5 (human)): 92% | residual activity (MARK1 (human)): 4.09% | residual activity (MINK1 (human)): 29.2% | residual activity (NEK9 (human)): 64.4% | residual activity (PAK1 (human)): 35.1% | residual activity (PDPK1 (human)): 21.8% | residual activity (PHKG1 (human)): 2.34% | residual activity (PKN2 (human)): 11.4% | residual activity (RPS6KA5 KD2 (human)): 13.2% | residual activity (SRC (human)): 39.6% | residual activity (STK38 (human)): 83.8% | residual activity (TLK2 (human)): 75% | residual activity (TXK (human)): 71.7% | residual activity (ULK3 (human)): 37%
